In US4497806A, “Triorganotin compounds, antifungal and antibacterial compositions containing same, and method of using same” (priority 1983, dated 1985):

Assays:
[1] = tested on: Aspergillus niger (ATCC 12845); assay: Antifungal activity, agar plate growth inhibition; format: cell-based; details: 14 days
Procedure: (§1) Dilutions of the sterile solutions were prepared and added to liquified potato dextrose agar (Difco) to yield final concentrations of 100, 10 and 1 μg/ml. The agar, containing the appropriate organotin compound, was poured into sterile petri dishes and allowed to solidify over night. The agar surface was inoculated centrally with a 2 mm^2 portion of the growth from a ten-day-old culture of each fungus of the group consisting of Aspergillus niger, Chaetomium globosum, Cladosporium carpophilum, Fusarium moniliforme, Myrotheium verrucaria, Penicillium notatum, Rhizopus stolonifer, Trichoderma viride and Trichophyton mentagrophytes, or from a two-day-old culture of Saccharomyces cerevisiae. Inoculated plates were incubated for 14 days and observations of growth inhibition were made by measuring the diameters of the colonies present on the agar surface.
(§2) A solvent was included in all evaluations, as were growth controls for all fungal species.
(§3) The following compounds were tested for comparative purposes: [drawing 6] These compounds were tested for antifungal activity in the same manner as the triorganotin 5-nitro-2-furoates of the present invention.

[2] = tested on: Chaetomium globosum (ATCC 6205); assay: Antifungal activity, agar plate growth inhibition; format: cell-based; details: 14 days
Procedure: as §1, §2, §3

[3] = tested on: Fusarium moniliforme (ATCC 10052); assay: Antifungal activity, agar plate growth inhibition; format: cell-based; details: 14 days
Procedure: as §1, §2, §3

[4] = tested on: Myrothecium verrucaria (ATCC 9095); assay: Antifungal activity, agar plate growth inhibition; format: cell-based; details: 14 days
Procedure: as §1, §2, §3

[5] = tested on: Penicillium notatum (ATCC 9179); assay: Antifungal activity, agar plate growth inhibition; format: cell-based; details: 14 days
Procedure: as §1, §2, §3

[6] = tested on: Rhizopus stolonifer (ATCC 10404); assay: Antifungal activity, agar plate growth inhibition; format: cell-based; details: 14 days
Procedure: as §1, §2, §3

[7] = tested on: Saccharomyces cerevisiae (ATCC 9896); assay: Antifungal activity, agar plate growth inhibition; format: cell-based; details: 14 days
Procedure: as §1, §2, §3

[8] = tested on: Trichoderma viride (ATCC 8678); assay: Antifungal activity, agar plate growth inhibition; format: cell-based; details: 14 days
Procedure: as §1, §2, §3

[9] = tested on: Trichophyton mentagrophytes (ATCC 9129); assay: Antifungal activity, agar plate growth inhibition; format: cell-based; details: 14 days
Procedure: as §1, §2, §3

[10] = tested on: Cladosporium carpophilium (ATCC 12117); assay: Antifungal activity, agar plate growth inhibition; format: cell-based, Cladosporium carpophilum; details: 14 days
Procedure: as §1, §2, §3

Escherichia coli = assay: Antibacterial activity, agar growth inhibition; format: cell-based; details: for growth inhibition: Gram-negative, 24 hours at 37° C.
Procedure: (§4) The agar was also needed with a 1:100 dilution of an 18-hour old culture of the desired bacterial species in sterile distilled water. The plates were incubated for 24 hours at 37° C. with each bacterial strain. Observations of bacterial growth inhibition were made following the appropriate incubation period.
(§5) A solvent control was included in all evaluations, as were growth controls for all bacteria species.
These compounds were tested for antibacterial activity in the same manner as the triorganotin 5-nitro-2-furoates of the present invention.
(§6) All of the bacteria tested were obtained from the culture collection of the Department of Biological Sciences, St. John's University.

Staphylococcus aureus = assay: Antibacterial activity, agar growth inhibition; format: cell-based; set-up: key to growth inhibition: -: no inhibition of growth; +: partial inhibition; 2+: complete inhibition; details: Gram-positive
Procedure: as §4, with “The antibacterial activity of Compounds A-E was investigated by means of incorporating the compounds into sterile tryptic soy agar (Difco) at levels of 100, 10, and 1 μg/ml. The agar” for “The agar”
as §5
(§7) Comparative compounds 1-5 above were employed for comparison purposes. These compounds were tested for antibacterial activity in the same manner as the triorganotin 5-nitro-2-furoates of the present invention.
as §6
(§8) The ability of Compound B to inhibit the growth of other Gram-positive bacteria, using the same test procedures as described for the antibacterial activity determined in Table III above, is illustrated in Table IV below.

Bacillus subtilis = assay: Antibacterial activity, agar growth inhibition; format: cell-based; set-up: key: -: no inhibition of growth; +: partial inhibition; 2+: complete inhibition; details: Gram-positive; 1 μg/ml; 24 hours at 37° C.
Procedure: as §4, with “The antibacterial activity of Compounds A-E was investigated by means of incorporating the compounds into sterile tryptic soy agar (Difco) at levels of 100, 10, and 1 μg/ml. The agar” for “The agar”
as §5, §7, §6, §8

Structure (SMILES)	growth inhibition ([1]; 1 μg/ml)	growth inhibition ([1]; 10 μg/ml)	growth inhibition ([1]; 100 μg/ml)	growth inhibition ([2]; 1 μg/ml)	growth inhibition ([2]; 10 μg/ml)	growth inhibition ([2]; 100 μg/ml)	growth inhibition ([3]; 1 μg/ml)	growth inhibition ([3]; 10 μg/ml)	growth inhibition ([3]; 100 μg/ml)	growth inhibition ([4]; 1 μg/ml)	growth inhibition ([4]; 10 μg/ml)	growth inhibition ([4]; 100 μg/ml)	growth inhibition ([5]; 1 μg/ml)	growth inhibition ([5]; 10 μg/ml)	growth inhibition ([5]; 100 μg/ml)	growth inhibition ([6]; 1 μg/ml)	growth inhibition ([6]; 10 μg/ml)	growth inhibition ([6]; 100 μg/ml)	growth inhibition ([7]; 1 μg/ml)	growth inhibition ([7]; 10 μg/ml)	also measured
N#CN=C(Nc1ccccc1)[O][Sn]([c]1ccccc1)([c]1ccccc1)[c]1ccccc1 [Comparative Compound 3, N--phenyl, N'--cyano-O--(triphenylstannyl)-isourea, reference compound]	-	+	+	-	+	+	-	+	+	+	+	+	-	+	+	-	+	+	-	-	growth inhibition ([7]; 100 μg/ml): 2+; growth inhibition ([8]; 1 μg/ml): -; growth inhibition ([8]; 10 μg/ml): -; growth inhibition ([8]; 100 μg/ml): +; growth inhibition ([9]; 1 μg/ml): +; growth inhibition ([9]; 10 μg/ml): +; growth inhibition ([9]; 100 μg/ml): 2+; growth inhibition ([10]; 1 μg/ml): -; growth inhibition ([10]; 10 μg/ml): +; growth inhibition ([10]; 100 μg/ml): +; growth inhibition (in words) (Escherichia coli; 100 μg/ml): inactive; growth inhibition (Escherichia coli; 1 μg/ml): -; growth inhibition (Escherichia coli; 10 μg/ml): -; growth inhibition (Escherichia coli; 100 μg/ml): -; minimum concentration for complete growth inhibition (Staphylococcus aureus): 100 µg/mL; growth inhibition (Staphylococcus aureus; 1 μg/ml, 24 hours at 37° C.): -
CCOC(=Nc1ccccc1)[S][Sn]([c]1ccccc1)([c]1ccccc1)[c]1ccccc1 [compound 4, Ethyl N--phenyl-S--(triphenylstannyl)iso-thiocarbamate, reference compound]	+	+	+	+	+	2+	+	+	+	+	+	+	+	+	+	+	+	+	-	+	growth inhibition ([7]; 100 μg/ml): +; growth inhibition ([8]; 1 μg/ml): -; growth inhibition ([8]; 10 μg/ml): +; growth inhibition ([8]; 100 μg/ml): +; growth inhibition ([9]; 1 μg/ml): +; growth inhibition ([9]; 10 μg/ml): 2+; growth inhibition ([9]; 100 μg/ml): 2+; growth inhibition ([10]; 1 μg/ml): +; growth inhibition ([10]; 10 μg/ml): +; growth inhibition ([10]; 100 μg/ml): 2+; growth inhibition (in words) (Escherichia coli; 100 μg/ml): partially; growth inhibition (Escherichia coli; 1 μg/ml): -; growth inhibition (Escherichia coli; 10 μg/ml): -; growth inhibition (Bacillus subtilis): -
